Source: ChEMBL document CHEMBL5252573, “2,3-Dihydrosorbicillin and chrysopanol stimulate insulin secretion in INS-1 cells” (Bioorg Med Chem Lett, 2023)
Activity calls are given as the source filed them. No cut-off for these calls is given here.

Tests used:
INS1 [1] = assay: Cytotoxicity against rat INS1 cells assessed as reduction in cell viability at 2.5 to 10 uM incubated for 24 hrs by MTT assay; assay type: toxicity, cell-based; conditions: ins1, 24 h, dose 2.5-10 µM
[2] = Induction of glucose stimulated insulin secretion in rat INS1 cells assessed as increase in insulin level at 10 uM incubated for 1 hr; assay type: functional
[3] = Induction of glucose stimulated insulin secretion in rat INS1 cells assessed as increase in insulin level at 5 uM incubated for 1 hr; assay type: functional
INS1 [4] = assay: Upregulation of AKT protein expression in rat INS1 cells at 5 uM incubated for 24 hrs by Western blot analysis; assay type: functional, cell-based
[5] = Induction of glucose stimulated insulin secretion in rat INS1 cells assessed as increase in insulin level at 2.5 uM incubated for 1 hr; assay type: functional
INS1 [6] = assay: Upregulation of PI3K protein expression in rat INS1 cells at 5 uM incubated for 24 hrs by Western blot analysis; assay type: functional, cell-based
INS1 [7] = assay: Upregulation of PDX-1 protein expression in rat INS1 cells at 5 uM incubated for 24 hrs by Western blot analysis; assay type: functional, cell-based
INS1 [8] = assay: Upregulation of PPARgamma protein expression in rat INS1 cells at 5 uM incubated for 24 hrs by Western blot analysis; assay type: functional, cell-based
INS1 [9] = assay: Upregulation of IRS-2 protein expression in rat INS1 cells at 5 uM incubated for 24 hrs by Western blot analysis; assay type: functional, cell-based
INS1 [10] = assay: Upregulation of IRS-2 protein expression in rat INS1 cells at 10 uM incubated for 24 hrs by Western blot analysis; assay type: functional, cell-based
INS1 [11] = assay: Upregulation of PPARgamma protein expression in rat INS1 cells at 10 uM incubated for 24 hrs by Western blot analysis; assay type: functional, cell-based
INS1 [12] = assay: Upregulation of AKT protein expression in rat INS1 cells at 10 uM incubated for 24 hrs by Western blot analysis; assay type: functional, cell-based
INS1 [13] = assay: Upregulation of PDX-1 protein expression in rat INS1 cells at 10 uM incubated for 24 hrs by Western blot analysis; assay type: functional, cell-based
INS1 [14] = assay: Upregulation of PI3K protein expression in rat INS1 cells at 10 uM incubated for 24 hrs by Western blot analysis; assay type: functional, cell-based

Compound	Activity (INS1 [1])	Activity [2] [ng/mL]	Activity [3] [ng/mL]	other results
C=CC(C)(C)[C@@]12C=C(O)C(=O)N3/C(=C/c4c[nH]cn4)C(=O)N[C@]31N(O)c1ccccc12	Non-Toxic	12.86	12.05	
C=CC(C)(C)[C@@]12C=C(O)C(=O)N3/C(=C/c4cnc[nH]4)C(=O)N[C@]31N(OC)c1ccccc12	Non-Toxic			
Cc1ccc(S(=O)(=O)NC(=O)NN2CC3CCCC3C2)cc1 (stereo unspecified) [GLICLAZIDE]		20.85	9.69	
Cc1cc(O)c2c(c1)C(=O)c1cccc(O)c1C2=O [CHRYSOPHANOL]	Non-Toxic	24.23	20.01	Activity (INS1 [4]): Active; Activity [5]: 8.81 ng/mL; Activity (INS1 [6]): Active; Activity (INS1 [7]): Active; Activity (INS1 [8]): Active; Activity (INS1 [9]): Active
Cc1cc(O)c2c(c1)C(=O)c1cc(O)cc(O)c1C2=O [EMODIN]	Non-Toxic			
CC(O)c1nc2ccccc2c(=O)[nH]1 (stereo unspecified)	Non-Toxic			
C/C=C/CCC(=O)c1cc(C)c(O)c(C)c1O	Non-Toxic	15.57	8.92	Activity (INS1 [10]): Active; Activity (INS1 [11]): Active; Activity (INS1 [12]): Active; Activity (INS1 [13]): Active; Activity (INS1 [14]): Active
COC(=O)[C@@]12Oc3ccc(-c4ccc5c(c4O)C(=O)C4=C(O)C[C@H](C)[C@@H](O)[C@]4(C(=O)OC)O5)c(O)c3C(=O)C1=C(O)C[C@H](C)[C@H]2O	Non-Toxic			
